Patent US7125869B2, “Polycyclic compounds which modulate PPARγ type receptors and cosmetic/pharmaceutical compositions comprised thereof” (Galderma Research & Development, priority 2002, dated 2006)
pKd: −log10 of the molar value.

Biological target: T1, PPARγ (Homo sapiens, UniProt P37231)
T1 construct: Either way it is a handle, not a second protein
T1 sequence (P37231 238-505 limits assumed): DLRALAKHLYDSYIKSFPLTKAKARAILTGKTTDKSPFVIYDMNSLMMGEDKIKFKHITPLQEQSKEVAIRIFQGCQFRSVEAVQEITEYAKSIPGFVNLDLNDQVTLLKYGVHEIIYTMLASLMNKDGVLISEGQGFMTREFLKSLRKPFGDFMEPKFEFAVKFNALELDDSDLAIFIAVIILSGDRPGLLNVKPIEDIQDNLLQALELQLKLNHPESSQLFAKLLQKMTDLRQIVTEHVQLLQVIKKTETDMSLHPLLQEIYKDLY
Assay: Crossover-curve PPAR transactivation test (HeLN cells, luciferase reporter), PPARγ
Assay type: cell-based
Conditions: HeLN cells stably transfected with Gal-hPPARγ; Schild regression against reference agonist; n.a. means not active; read-out: PPARγ Kd app
Method: The activation of receptors with an agonist (activator) in HeLN cells leads to the expression of a reporter gene, luciferase, which, in the presence of a substrate, generates light. The modulation of the receptors is measured by quantifying the luminescence produced after incubating the cells in the presence of a reference agonist. The ligands displace the agonist from its site. The measurement of the activity is performed by quantifying the light produced. This measurement makes it possible to determine the modulatory activity of the compounds according to the invention by determining the constant that is the affinity of the molecule for the receptor. Since this value can fluctuate depending on the basal activity and the expression of the receptor, it is referred to as Kd apparent (KdApp in nM).
To determine this constant, “crossover curves” of the test product against a reference agonist are performed in a 96-well plate: 10 concentrations of the test product plus a concentration 0 are arranged in a line, and 7 concentrations of the agonist plus a concentration 0 are arranged in a column. This is 88 measurement points for 1 product and 1 receptor. The remaining 8 wells are used for repeatability controls.
Measurements are also taken for total agonist controls with the same products.
The HeLN cell lines used are stable transfectants containing the plasmids ERE-βGlob-Luc-SV-Neo (reporter gene) and PPAR (α, δ, γ) Gal-hPPAR. These cells are inoculated into 96-well plates at a rate of 10 000 cells per well in 100 μl of DMEM medium without phenol red and supplemented with 10% of defatted calf serum. The plates are then incubated at 37° C. and 7% CO2 for 16 hours.
The various dilutions of the test products and of the reference ligand are added at a rate of 5 μl per well. The plates are then incubated for 18 hours at 37° C. and 7% CO2. The culture medium is removed by turning over and 100 μl of a 1:1 PBS/luciferine mixture are added to each well. After 5 minutes, the plates are read by the luminescence detector.

pKd	Structure (SMILES)
6.92	COCCOCOc1ccc2cc(C(=O)N(C)Cc3cccc(-c4ccc(Nc5cccc(C(=O)N6CCC(C)CC6)c5)cc4)c3)ccc2c1 [Example 16, N-methyl-N-{4′-[3-(4-methylpiperidine-1-carbonyl)phenylamino]biphenyl-3-ylmethyl}-6-(2-methoxyethoxymethoxy)naphthalene-2-carboxylamide]
6.30	COCCOCOc1ccc2cc(C(=O)N(C)Cc3cccc(-c4ccc(Nc5cccc(C(=O)N6CCOCC6)c5)cc4)c3)ccc2c1 [Example 17]
6.60	CCCCCCCC(=O)N(C)Cc1cccc(-c2ccc(N(C)c3ccccc3C(=O)O)cc2)c1 [Example 8, 2-(methyl-{3′-[(methyloctanoylamino)methyl]biphenyl-4-yl}amino)benzoic acid]
